In general, viability, T/C refers to the result in the treated group divided by that in the control group, in per cent.

Our source for the viability, T/C values is PubChem BioAssay AID2060501 (Molecular Pharmacology Branch, DTP, NCI, 2025).
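Also: spheroids exposed to compounds for 7 days before readout; percent of vehicle DMSO control viability with 100% = untreated-like growth.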

One experiment concerns 282377-053-R-J1-PDC complex spheroids, viability. Briefly: Anticancer human tumor 282377-053-R-J1-PDC patient-derived colon adenocarcinoma cell line growth inhibition [GQUAD]. As to conditions: second compound 1 µM; first compound 0.316 µM; active compounds read low. The method, boiled down:
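Tumor cells were grown as complex spheroids with HUVEC endothelial cells and mesenchymal stem cells as stroma. G-quadruplex stabilizers were combined with targeted agents over half-log dilutions from near the clinical Cmax, or from 10 microM.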
Take `CC(C)(O)C1CCC(Nc2ccc3ncc(-c4cccc(C(F)(F)F)c4)n3n2)CC1` (stereo unspecified) + CN(C)c1ccc(Nc2c3ccc(NC(=O)CCN4CCCC4)cc3nc3cc(NC(=O)CCN4CCCC4)ccc23)cc1: the viability, T/C was 85.6%.

Regarding `COc1ncnc(C2CC2)c1-c1ncc2cnn(Cc3ccc(-c4nc(C(F)(F)F)cn4C(C)C)cc3)c2n1` + CN(C)c1ccc(Nc2c3ccc(NC(=O)CCN4CCCC4)cc3nc3cc(NC(=O)CCN4CCCC4)ccc23)cc1, the viability, T/C was 93%.

Turning to `CC1COCCN1c1cc(C2(S(C)(=N)=O)CC2)nc(-c2ccnc3[nH]ccc23)n1` (stereo unspecified) + Cc1[nH]c2ccc(F)cc2c1-c1nc2c3cccnc3c3ncccc3c2[nH]1, the viability, T/C was 87.3%.

On to `COc1ccc([C@@H](O)c2cc(-c3ncnc4cc(N5CCOCC5)ccc34)c(F)cc2Cl)nn1` + Cc1[nH]c2ccc(F)cc2c1-c1nc2c3cccnc3c3ncccc3c2[nH]1, for which the viability, T/C is 94.7%.

The experiment is the same for the next values; noted with them: second compound 1 µM; first compound 1 µM; active compounds read low.
As for `C=CCn1c(=O)c2cnc(Nc3ccc(N4CCN(C)CC4)cc3)nc2n1-c1cccc(C(C)(C)O)n1` + CN(C)c1ccc(Nc2c3ccc(NC(=O)CCN4CCCC4)cc3nc3cc(NC(=O)CCN4CCCC4)ccc23)cc1, the viability, T/C was 76.4%.

With `CC(C)(O)C1CCC(Nc2ccc3ncc(-c4cccc(C(F)(F)F)c4)n3n2)CC1` (stereo unspecified) + CN(C)c1ccc(Nc2c3ccc(NC(=O)CCN4CCCC4)cc3nc3cc(NC(=O)CCN4CCCC4)ccc23)cc1, the viability, T/C is 73.1%.

Take `COc1ncnc(C2CC2)c1-c1ncc2cnn(Cc3ccc(-c4nc(C(F)(F)F)cn4C(C)C)cc3)c2n1` + CN(C)c1ccc(Nc2c3ccc(NC(=O)CCN4CCCC4)cc3nc3cc(NC(=O)CCN4CCCC4)ccc23)cc1: the viability, T/C was 75.4%.

`CC1COCCN1c1cc(C2(S(C)(=N)=O)CC2)nc(-c2ccnc3[nH]ccc23)n1` (stereo unspecified) + Cc1[nH]c2ccc(F)cc2c1-c1nc2c3cccnc3c3ncccc3c2[nH]1: the viability, T/C was 86.2%.

Consider `COc1ccc([C@@H](O)c2cc(-c3ncnc4cc(N5CCOCC5)ccc34)c(F)cc2Cl)nn1` + Cc1[nH]c2ccc(F)cc2c1-c1nc2c3cccnc3c3ncccc3c2[nH]1, for which the viability, T/C was 97.1%.

Still in this experiment, the particulars now being: second compound 1 µM; first compound 3.16 µM; active compounds read low.
Take `C=CCn1c(=O)c2cnc(Nc3ccc(N4CCN(C)CC4)cc3)nc2n1-c1cccc(C(C)(C)O)n1` + CN(C)c1ccc(Nc2c3ccc(NC(=O)CCN4CCCC4)cc3nc3cc(NC(=O)CCN4CCCC4)ccc23)cc1: the viability, T/C is 27.5%.

On to `CC(C)(O)C1CCC(Nc2ccc3ncc(-c4cccc(C(F)(F)F)c4)n3n2)CC1` (stereo unspecified) + CN(C)c1ccc(Nc2c3ccc(NC(=O)CCN4CCCC4)cc3nc3cc(NC(=O)CCN4CCCC4)ccc23)cc1, for which the viability, T/C was 19.6%.

In the case of `COc1ncnc(C2CC2)c1-c1ncc2cnn(Cc3ccc(-c4nc(C(F)(F)F)cn4C(C)C)cc3)c2n1` + CN(C)c1ccc(Nc2c3ccc(NC(=O)CCN4CCCC4)cc3nc3cc(NC(=O)CCN4CCCC4)ccc23)cc1, the viability, T/C is 79.6%.

`CC1COCCN1c1cc(C2(S(C)(=N)=O)CC2)nc(-c2ccnc3[nH]ccc23)n1` (stereo unspecified) + Cc1[nH]c2ccc(F)cc2c1-c1nc2c3cccnc3c3ncccc3c2[nH]1: the viability, T/C is 57.7%.

With `COc1ccc([C@@H](O)c2cc(-c3ncnc4cc(N5CCOCC5)ccc34)c(F)cc2Cl)nn1` + Cc1[nH]c2ccc(F)cc2c1-c1nc2c3cccnc3c3ncccc3c2[nH]1, the viability, T/C is 88.2%.

The experiment is the same for the next values; noted with them: second compound 1 µM; first compound 10 µM; active compounds read low.
As for `C=CCn1c(=O)c2cnc(Nc3ccc(N4CCN(C)CC4)cc3)nc2n1-c1cccc(C(C)(C)O)n1` + CN(C)c1ccc(Nc2c3ccc(NC(=O)CCN4CCCC4)cc3nc3cc(NC(=O)CCN4CCCC4)ccc23)cc1, the viability, T/C is 16.7%.

With `CC(C)(O)C1CCC(Nc2ccc3ncc(-c4cccc(C(F)(F)F)c4)n3n2)CC1` (stereo unspecified) + CN(C)c1ccc(Nc2c3ccc(NC(=O)CCN4CCCC4)cc3nc3cc(NC(=O)CCN4CCCC4)ccc23)cc1, the viability, T/C is 31.3%.

Consider `COc1ncnc(C2CC2)c1-c1ncc2cnn(Cc3ccc(-c4nc(C(F)(F)F)cn4C(C)C)cc3)c2n1` + CN(C)c1ccc(Nc2c3ccc(NC(=O)CCN4CCCC4)cc3nc3cc(NC(=O)CCN4CCCC4)ccc23)cc1, for which the viability, T/C is 80.8%.

With `CC1COCCN1c1cc(C2(S(C)(=N)=O)CC2)nc(-c2ccnc3[nH]ccc23)n1` (stereo unspecified) + Cc1[nH]c2ccc(F)cc2c1-c1nc2c3cccnc3c3ncccc3c2[nH]1, the viability, T/C was 38.1%.

For `COc1ccc([C@@H](O)c2cc(-c3ncnc4cc(N5CCOCC5)ccc34)c(F)cc2Cl)nn1` + Cc1[nH]c2ccc(F)cc2c1-c1nc2c3cccnc3c3ncccc3c2[nH]1, the viability, T/C is 57.4%.

The experiment is the same for the next values; noted with them: second compound 3.16 µM; first compound 0.0316 µM; active compounds read low.
For `C=CCn1c(=O)c2cnc(Nc3ccc(N4CCN(C)CC4)cc3)nc2n1-c1cccc(C(C)(C)O)n1` + CN(C)c1ccc(Nc2c3ccc(NC(=O)CCN4CCCC4)cc3nc3cc(NC(=O)CCN4CCCC4)ccc23)cc1, the viability, T/C is 92.8%.

As to `CC(C)(O)C1CCC(Nc2ccc3ncc(-c4cccc(C(F)(F)F)c4)n3n2)CC1` (stereo unspecified) + CN(C)c1ccc(Nc2c3ccc(NC(=O)CCN4CCCC4)cc3nc3cc(NC(=O)CCN4CCCC4)ccc23)cc1, the viability, T/C was 100%.

As to `COc1ncnc(C2CC2)c1-c1ncc2cnn(Cc3ccc(-c4nc(C(F)(F)F)cn4C(C)C)cc3)c2n1` + CN(C)c1ccc(Nc2c3ccc(NC(=O)CCN4CCCC4)cc3nc3cc(NC(=O)CCN4CCCC4)ccc23)cc1, the viability, T/C is 92.1%.

On to `CC1COCCN1c1cc(C2(S(C)(=N)=O)CC2)nc(-c2ccnc3[nH]ccc23)n1` (stereo unspecified) + Cc1[nH]c2ccc(F)cc2c1-c1nc2c3cccnc3c3ncccc3c2[nH]1, for which the viability, T/C is 65.2%.

For the molecule `COc1ccc([C@@H](O)c2cc(-c3ncnc4cc(N5CCOCC5)ccc34)c(F)cc2Cl)nn1` + Cc1[nH]c2ccc(F)cc2c1-c1nc2c3cccnc3c3ncccc3c2[nH]1, the viability, T/C was 75.7%.

Staying with this experiment, now noted: second compound 3.16 µM; first compound 0.1 µM; active compounds read low.
For the molecule `C=CCn1c(=O)c2cnc(Nc3ccc(N4CCN(C)CC4)cc3)nc2n1-c1cccc(C(C)(C)O)n1` + CN(C)c1ccc(Nc2c3ccc(NC(=O)CCN4CCCC4)cc3nc3cc(NC(=O)CCN4CCCC4)ccc23)cc1, the viability, T/C was 82.5%.

Turning to `CC(C)(O)C1CCC(Nc2ccc3ncc(-c4cccc(C(F)(F)F)c4)n3n2)CC1` (stereo unspecified) + CN(C)c1ccc(Nc2c3ccc(NC(=O)CCN4CCCC4)cc3nc3cc(NC(=O)CCN4CCCC4)ccc23)cc1, the viability, T/C is 97.2%.
